Measured values: US20220177538A1, “CO-AGONISTS AT GLP-1 AND GIP RECEPTORS SUITABLE FOR ORAL DELIVERY” (Novo Nordisk A/S, priority 2020, published 2022)
Like-named read-outs stand apart in the source and are kept apart here. Starred links: 1 amine or outer side, 2 acyl side, 3 side chain; linkers in the order of their positions; H or OH if unused. Non-standard residues stand in square brackets, D forms with d. Residues, ends and D or L forms follow the SMILES beside them. Groups on a side chain read outwards from the residue. *: point of attachment. C20 diacid = O=C(O)CCCCCCCCCCCCCCCCCCC(=O)*; C18 diacid = O=C(O)CCCCCCCCCCCCCCCCC(=O)*; C16 diacid = O=C(O)CCCCCCCCCCCCCCC(=O)*; γGlu = O=C(O)[C@H](CCC(=O)[*:2])N[*:1]; εLys = N[C@@H](CCCCN[*:1])C(=O)[*:2]; AEEA = NCCOCCOCC(=O)O; Aib = CC(C)(N)C(=O)O

Columns and labels:
[1] = biological target: T1, human GIP receptor (Homo sapiens, UniProt P48546); assay: In vitro functional potency, CRE luciferase reporter, whole BHK cells (hGIPR); assay type: cell-based; settings: BHK CRE luc2P hGIPR cells
T1 construct: expressed in transfected cells; host or cells: BHK (parent line BHKTS13), clone BHK CRE luc2P hGIPR
T1 sequence (P48546 22-466): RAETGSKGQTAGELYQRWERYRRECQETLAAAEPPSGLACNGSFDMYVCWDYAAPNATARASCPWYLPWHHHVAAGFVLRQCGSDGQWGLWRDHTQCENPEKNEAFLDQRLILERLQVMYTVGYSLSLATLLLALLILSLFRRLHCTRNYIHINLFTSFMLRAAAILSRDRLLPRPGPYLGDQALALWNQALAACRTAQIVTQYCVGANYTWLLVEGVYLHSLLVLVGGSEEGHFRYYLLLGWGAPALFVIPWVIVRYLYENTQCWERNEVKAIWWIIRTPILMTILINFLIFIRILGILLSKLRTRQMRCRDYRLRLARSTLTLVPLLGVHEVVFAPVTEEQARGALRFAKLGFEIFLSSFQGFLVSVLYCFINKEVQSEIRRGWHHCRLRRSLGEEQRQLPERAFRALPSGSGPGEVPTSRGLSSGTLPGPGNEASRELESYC
Experimental: (§1) The in vitro functional potency is the measure of target receptor activation in a whole cell assay.
(§2) In vitro functional potency was determined by measuring the response of the target receptor in a reporter gene assay in individual cell lines. […] When the respective receptor is activated, it results in the production of cAMP, which in turn results in expression of the luciferase protein. When assay incubation is completed, luciferase substrate (luciferin) is added resulting in the enzymatic conversion of luciferin to oxyluciferin and producing bioluminescence. The luminescence is measured as the readout for the assay.
(§3) The cells lines used in these assays were BHK cells with BHKTS13 as a parent cell line. The cell lines were derived from a clone containing the CRE luciferase element and were established by further transfection with the respective human receptor to obtain the relevant cell line: BHK CRE luc2P hGLP-1R or BHK CRE luc2P hGIPR. The cells were cultured at 37° C. with 5% CO2 in Cell Culture Medium. They were aliquoted and stored in liquid nitrogen. The cells were kept in continuous culture and were seeded out the day before each assay.
(§4) GLP-1R Cell Culture Medium consisted of DMEM medium with 10% FBS, 500 µg/mL G418, and 300 µg/mL hygromycin. GIPR Cell Culture Medium consisted of DMEM medium with 10% FBS, 400 µg/mL G418, and 300 µg/mL hygromycin. Assay Buffer consisted of DMEM w/o phenol red, 10 mM Hepes, 1× Glutamax. 1% ovalbumin, and 0.1% Pluronic F-68 with the addition of HSA at twice the final assay concentration.
(§5) 1) Cells were plated at 5000 cells/well and incubated overnight in the assay plate. 2) Cells were washed once in DPBS. 3) Stocks of the test compounds and reference compounds in concentrations ranging from […] were diluted 1:150 in Assay Buffer. Compounds were then diluted 1:10 in column 1 of a 96 deep well dilution plate and then carried across the row creating a 3.5 fold, 12 point dilution curve. 4) Assay Buffer (50 μl aliquot) with or without HSA was added to each well in the assay plate. 5) A 50 μl aliquot of compound or blank was transferred from the dilution plate to the assay plate containing the Assay Buffer with or without HSA. 6) The assay plate was incubated for 3 h in a 5% CO2 incubator at 37° C. 7) The cells were washed once with DPBS. 8) A 100 μl aliquot of DPBS was added to each well of the assay plate. 9) A 100 μl aliquot of steadylite plus reagent (light sensitive) was added to each well of the assay plate. 10) Each assay plate was covered with aluminum foil to protect it from light and shaken at 250 RPM for 30 min at room temperature. 11) Each assay plate was read in a microtiter plate reader.
(§6) The data from the microtiter plate reader was first regressed in an Excel in order to calculate the x-axis, log scale concentrations based on the individual test compound's stock concentration and the dilutions of the assay. […] The software performs a non-linear regression (log(agonist) vs response). A minimum of two replicates was measured for each sample. The reported values are averages of the replicates.

[2] = biological target: human GLP-1 receptor (Homo sapiens, UniProt P43220); assay: In vitro functional potency, CRE luciferase reporter, whole BHK cells (hGLP-1R); assay type: cell-based; parameters: expressed in transfected cells; host or cells: BHK (parent line BHKTS13), clone BHK CRE luc2P hGLP-1R; settings: BHK CRE luc2P hGLP-1R cells
Sequence of human GLP-1 receptor (P43220 24-463): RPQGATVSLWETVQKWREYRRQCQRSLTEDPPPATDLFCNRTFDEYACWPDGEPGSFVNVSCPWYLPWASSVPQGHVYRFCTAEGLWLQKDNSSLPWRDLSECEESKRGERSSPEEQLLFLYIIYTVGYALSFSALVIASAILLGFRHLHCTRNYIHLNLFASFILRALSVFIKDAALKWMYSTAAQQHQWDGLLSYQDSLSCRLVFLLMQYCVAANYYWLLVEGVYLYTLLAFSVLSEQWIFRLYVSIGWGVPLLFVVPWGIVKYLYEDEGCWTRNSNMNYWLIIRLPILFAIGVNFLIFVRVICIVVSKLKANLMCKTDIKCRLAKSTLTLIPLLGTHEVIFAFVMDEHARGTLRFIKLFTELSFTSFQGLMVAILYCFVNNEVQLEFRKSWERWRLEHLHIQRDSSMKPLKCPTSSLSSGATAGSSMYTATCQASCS
Experimental: as §1, §2, §3, §4, §5, §6

[3] = 0% HSA, read-out: hGIPR, CRE Luc 0% HSA EC50
[4] = hGIPR, CRE Luc 1% HSA EC50, 1% HSA
[5] = 0% HSA, read-out: hGLP-1R, CRE Luc 0% HSA EC50
[6] = hGLP-1R, CRE Luc 1% HSA EC50, 1% HSA

Structure (SMILES)	EC50 [1, 3]	EC50 [1, 4]	EC50 [2, 5]	EC50 [2, 6]
CC[C@H](C)[C@H](NC(=O)[C@H](Cc1ccccc1)NC(=O)[C@H](CCC(=O)O)NC(=O)[C@H](CCCNC(=N)N)NC(=O)[C@H](C)NC(=O)[C@H](C)NC(=O)[C@H](CCC(N)=O)NC(=O)[C@H](CCC(=O)O)NC(=O)[C@H](CCC(=O)O)NC(=O)[C@H](CC(C)C)NC(=O)[C@H](CC(C)C)NC(=O)[C@@H](NC(=O)[C@H](CO)NC(=O)[C@H](Cc1ccc(O)cc1)NC(=O)[C@H](CC(=O)O)NC(=O)[C@H](CO)NC(=O)[C@@H](NC(=O)[C@H](Cc1ccccc1)NC(=O)[C@@H](NC(=O)CNC(=O)[C@H](CCC(=O)O)NC(=O)C(C)(C)NC(=O)[C@@H](N)Cc1ccc(O)cc1)[C@@H](C)O)[C@@H](C)O)[C@@H](C)CC)C(=O)N[C@@H](CCC(=O)O)C(=O)N[C@@H](Cc1c[nH]c2ccccc12)C(=O)N[C@@H](CC(C)C)C(=O)N[C@@H](CC(C)C)C(=O)N[C@@H](C)C(=O)NCC(=O)NCC(=O)N1CCC[C@H]1C(=O)N[C@@H](CO)C(=O)N[C@@H](CCCCNC(=O)COCCOCCNC(=O)COCCOCCNC(=O)CC[C@H](NC(=O)CCCCCCCCCCCCCCC(=O)O)C(=O)O)C(=O)NCC(=O)N[C@@H](C)C(=O)N1CCC[C@H]1C(=O)N1CCC[C@H]1C(=O)N1CCC[C@H]1C(=O)N[C@@H](CO)C(=O)O [Compound 47] (H-Y[Aib]EGTFTSDYSILLEEQAAREFIEWLLAGGPSK([AEEA-AEEA-γGlu-C16 diacid])GAPPPS-OH)	0.0031 nM	0.156 nM	0.0021 nM	0.154 nM
CC[C@H](C)[C@H](NC(=O)[C@H](CO)NC(=O)[C@H](Cc1ccc(O)cc1)NC(=O)[C@H](CC(=O)O)NC(=O)[C@H](CO)NC(=O)[C@@H](NC(=O)[C@H](Cc1ccccc1)NC(=O)[C@@H](NC(=O)CNC(=O)[C@H](CCC(=O)O)NC(=O)C(C)(C)NC(=O)[C@@H](N)Cc1ccc(O)cc1)[C@@H](C)O)[C@@H](C)O)C(=O)N[C@@H](Cc1ccc(O)cc1)C(=O)N[C@@H](CC(C)C)C(=O)N[C@@H](CCC(=O)O)C(=O)N[C@@H](CCCCNC(=O)[C@@H](N)CCCCNC(=O)[C@@H](N)CCCCNC(=O)CC[C@H](NC(=O)CCCCCCCCCCCCCCCCCCC(=O)O)C(=O)O)C(=O)N[C@@H](CCC(N)=O)C(=O)N[C@@H](C)C(=O)N[C@@H](C)C(=O)N[C@@H](CCC(N)=O)C(=O)N[C@@H](CCC(=O)O)C(=O)N[C@@H](Cc1ccccc1)C(=O)N[C@H](C(=O)N[C@@H](CC(N)=O)C(=O)N[C@@H](Cc1c[nH]c2ccccc12)C(=O)N[C@@H](CC(C)C)C(=O)N[C@@H](CC(C)C)C(=O)N[C@@H](C)C(=O)NCC(=O)NCC(=O)N1CCC[C@H]1C(=O)N[C@@H](CO)C(=O)N[C@@H](CO)C(=O)NCC(=O)N[C@@H](C)C(=O)N1CCC[C@H]1C(=O)N1CCC[C@H]1C(=O)N1CCC[C@H]1C(=O)N[C@@H](CO)C(N)=O)C(C)C [Compound 1] (H-Y[Aib]EGTFTSDYSIYLEK([εLys-εLys-γGlu-C20 diacid])QAAQEFVNWLLAGGPSSGAPPPS-NH2)	0.0028 nM	0.173 nM	0.0078 nM	1.66 nM
CC[C@H](C)[C@H](NC(=O)[C@H](Cc1ccccc1)NC(=O)[C@H](CCC(=O)O)NC(=O)[C@H](CCCNC(=N)N)NC(=O)[C@H](C)NC(=O)[C@H](C)NC(=O)[C@H](CCC(N)=O)NC(=O)[C@H](CCCCNC(=O)[C@@H](N)CCCCNC(=O)[C@@H](N)CCCCNC(=O)CC[C@H](NC(=O)CCCCCCCCCCCCCCCCC(=O)O)C(=O)O)NC(=O)[C@H](CCC(=O)O)NC(=O)[C@H](CC(C)C)NC(=O)[C@H](CC(C)C)NC(=O)[C@@H](NC(=O)[C@H](CO)NC(=O)[C@H](Cc1ccc(O)cc1)NC(=O)[C@H](CC(=O)O)NC(=O)[C@H](CO)NC(=O)[C@@H](NC(=O)[C@H](Cc1ccccc1)NC(=O)[C@@H](NC(=O)CNC(=O)[C@H](CCC(=O)O)NC(=O)C(C)(C)NC(=O)[C@@H](N)Cc1ccc(O)cc1)[C@@H](C)O)[C@@H](C)O)[C@@H](C)CC)C(=O)N[C@@H](CCC(=O)O)C(=O)N[C@@H](Cc1c[nH]c2ccccc12)C(=O)N[C@@H](CC(C)C)C(=O)N[C@@H](CC(C)C)C(=O)N[C@@H](CCCNC(=N)N)C(=O)NCC(=O)NCC(=O)N1CCC[C@H]1C(=O)N[C@@H](CO)C(=O)N[C@@H](CO)C(=O)NCC(=O)N[C@@H](C)C(=O)N1CCC[C@H]1C(=O)N1CCC[C@H]1C(=O)N1CCC[C@H]1C(=O)N[C@@H](CO)C(=O)O [Compound 27] (H-Y[Aib]EGTFTSDYSILLEK([εLys-εLys-γGlu-C18 diacid])QAAREFIEWLLRGGPSSGAPPPS-OH)	0.0063 nM	0.132 nM	0.0046 nM	0.127 nM
CC[C@H](C)[C@H](NC(=O)[C@H](Cc1ccccc1)NC(=O)[C@H](CCC(=O)O)NC(=O)[C@H](CCCNC(=N)N)NC(=O)[C@H](C)NC(=O)[C@H](C)NC(=O)[C@H](CCC(N)=O)NC(=O)[C@H](CCC(=O)O)NC(=O)[C@H](CCC(=O)O)NC(=O)[C@H](CC(C)C)NC(=O)[C@H](CC(C)C)NC(=O)[C@@H](NC(=O)[C@H](CO)NC(=O)[C@H](Cc1ccc(O)cc1)NC(=O)[C@H](CC(=O)O)NC(=O)[C@H](CO)NC(=O)[C@@H](NC(=O)[C@H](Cc1ccccc1)NC(=O)[C@@H](NC(=O)CNC(=O)[C@H](CCC(=O)O)NC(=O)C(C)(C)NC(=O)[C@@H](N)Cc1ccc(O)cc1)[C@@H](C)O)[C@@H](C)O)[C@@H](C)CC)C(=O)N[C@@H](CC(N)=O)C(=O)N[C@@H](Cc1c[nH]c2ccccc12)C(=O)N[C@@H](CC(C)C)C(=O)N[C@@H](CC(C)C)C(=O)N[C@@H](C)C(=O)NCC(=O)NCC(=O)N1CCC[C@H]1C(=O)N[C@@H](CO)C(=O)N[C@@H](CCCCNC(=O)[C@@H](N)CCCCNC(=O)[C@@H](N)CCCCNC(=O)CC[C@H](NC(=O)CCCCCCCCCCCCCCCCC(=O)O)C(=O)O)C(=O)NCC(=O)N[C@@H](C)C(=O)N1CCC[C@H]1C(=O)N1CCC[C@H]1C(=O)N1CCC[C@H]1C(=O)N[C@@H](CO)C(=O)O [Compound 44] (H-Y[Aib]EGTFTSDYSILLEEQAAREFINWLLAGGPSK([εLys-εLys-γGlu-C18 diacid])GAPPPS-OH)	0.0057 nM	0.365 nM	0.0042 nM	0.241 nM
